Measurements: ChEMBL document CHEMBL1126789, “Conformational effects on retinoid receptor selectivity. 1. Effect of 9-double bond geometry on retinoid X receptor activity” (J Med Chem, 1993)

Columns and labels:
[1] = target: T1, Retinoic acid receptor alpha (Homo sapiens, UniProt P10276); experiment: Effective concentration against RAR-alpha receptor
T1 sequence (P10276 whole entry): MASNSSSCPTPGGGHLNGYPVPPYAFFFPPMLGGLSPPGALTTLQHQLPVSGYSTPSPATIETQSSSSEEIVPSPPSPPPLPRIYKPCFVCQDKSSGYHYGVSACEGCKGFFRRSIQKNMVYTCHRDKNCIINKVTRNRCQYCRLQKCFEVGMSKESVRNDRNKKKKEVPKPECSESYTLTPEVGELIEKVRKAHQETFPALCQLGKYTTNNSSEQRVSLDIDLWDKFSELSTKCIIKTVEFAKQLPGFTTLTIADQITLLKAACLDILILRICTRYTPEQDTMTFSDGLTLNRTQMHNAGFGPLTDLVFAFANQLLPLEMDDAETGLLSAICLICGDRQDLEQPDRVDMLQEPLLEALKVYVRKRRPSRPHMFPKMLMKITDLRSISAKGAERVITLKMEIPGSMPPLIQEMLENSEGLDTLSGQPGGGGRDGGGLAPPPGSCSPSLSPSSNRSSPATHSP

[2] = target: T2, Retinoic acid receptor gamma (Homo sapiens, UniProt P13631); experiment: Effective concentration against RAR-gamma receptor
T2 sequence (P13631 whole entry): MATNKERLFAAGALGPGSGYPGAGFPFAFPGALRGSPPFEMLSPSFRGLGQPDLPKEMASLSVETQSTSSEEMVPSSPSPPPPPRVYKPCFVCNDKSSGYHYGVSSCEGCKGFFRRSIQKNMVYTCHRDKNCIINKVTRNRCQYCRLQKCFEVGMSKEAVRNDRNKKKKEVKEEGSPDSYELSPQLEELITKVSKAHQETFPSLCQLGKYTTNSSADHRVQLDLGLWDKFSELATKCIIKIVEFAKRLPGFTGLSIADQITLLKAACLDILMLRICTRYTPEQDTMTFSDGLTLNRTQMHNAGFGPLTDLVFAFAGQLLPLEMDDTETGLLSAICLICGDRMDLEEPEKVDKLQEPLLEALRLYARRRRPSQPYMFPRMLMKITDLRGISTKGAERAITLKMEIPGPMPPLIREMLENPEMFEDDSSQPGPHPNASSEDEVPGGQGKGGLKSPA

[3] = target: T3, Retinoic acid receptor RXR-alpha (Homo sapiens, UniProt P19793); experiment: Effective concentration against RXR-alpha receptor
T3 sequence (P19793 whole entry): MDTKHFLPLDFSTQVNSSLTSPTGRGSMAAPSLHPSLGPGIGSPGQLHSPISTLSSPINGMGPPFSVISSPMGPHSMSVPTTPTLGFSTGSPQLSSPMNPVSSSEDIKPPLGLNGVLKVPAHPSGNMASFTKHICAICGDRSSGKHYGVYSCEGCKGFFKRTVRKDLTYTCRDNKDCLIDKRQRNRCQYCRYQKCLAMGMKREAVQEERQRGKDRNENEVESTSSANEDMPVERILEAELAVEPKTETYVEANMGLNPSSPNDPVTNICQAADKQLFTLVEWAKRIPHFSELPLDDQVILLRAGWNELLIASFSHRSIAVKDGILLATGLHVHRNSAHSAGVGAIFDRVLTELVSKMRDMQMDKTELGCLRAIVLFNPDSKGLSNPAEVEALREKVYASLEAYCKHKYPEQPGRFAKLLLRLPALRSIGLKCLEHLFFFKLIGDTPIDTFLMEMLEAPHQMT

[4] = target: T4, Retinoic acid receptor beta (Homo sapiens, UniProt P10826); experiment: Effective concentration against Retinoic acid receptor beta
T4 sequence (P10826 whole entry): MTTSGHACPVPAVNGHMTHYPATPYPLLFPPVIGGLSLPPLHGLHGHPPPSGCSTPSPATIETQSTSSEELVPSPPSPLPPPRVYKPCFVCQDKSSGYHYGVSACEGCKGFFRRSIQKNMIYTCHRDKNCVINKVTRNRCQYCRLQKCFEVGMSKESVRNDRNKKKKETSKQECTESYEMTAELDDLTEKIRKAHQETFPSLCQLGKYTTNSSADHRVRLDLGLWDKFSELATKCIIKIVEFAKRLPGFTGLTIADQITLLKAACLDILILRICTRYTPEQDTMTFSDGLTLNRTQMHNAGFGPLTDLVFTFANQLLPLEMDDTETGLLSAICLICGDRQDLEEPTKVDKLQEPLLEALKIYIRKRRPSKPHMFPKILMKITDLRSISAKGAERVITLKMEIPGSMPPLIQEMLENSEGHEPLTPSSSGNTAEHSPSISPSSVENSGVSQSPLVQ

[5] = target: T4, Retinoic acid receptor beta; experiment: Effective concentration against RAR-beta receptor

SMILES	EC50 [1] [µM]	EC50 [2] [µM]	EC50 [3] [µM]	EC50 [4] [µM]	EC50 [5] [µM]
C/C(=C/c1ccc2c(c1)C(C)(C)CCS2)c1ccc(C(=O)O)cc1	2.1	1.5	2.8	1.5	–
C/C(=C\c1ccc2c(c1)C(C)(C)CCS2)c1ccc(C(=O)O)cc1	0.045	0.047	–	0.04	–
C/C(=C/c1ccc(C(=O)O)cc1)c1ccc2c(c1)C(C)(C)CCC2(C)C	–	–	2.7	–	–
C/C(=C/c1ccc(C(=O)O)cc1)c1ccc2c(c1)C1CCC2C1 (stereo not drawn)	–	0.07	–	–	–
C/C(=C/c1ccc(C(=O)O)cc1)c1ccc2c(c1)C(C)(C)CCS2	2.3	1.1	–	0.25	–
C/C(=C\c1ccc2c(c1)C(C)(C)CCC2(C)C)c1ccc(C(=O)O)cc1	0.037	0.019	–	0.025	–
CC1(C)CCC(C)(C)c2cc(-c3ccccc3-c3ccc(C(=O)O)cc3)ccc21	–	0.1	2.8	3.2	–
C/C(=C/c1ccc2c(c1)C(C)(C)CCC2(C)C)c1ccc(C(=O)O)cc1	–	2.7	1.1	1.9	–
C/C(=C\c1ccc(C(=O)O)cc1)c1ccc2c(c1)C1CCC2C1 (stereo not drawn)	–	0.55	–	–	1.1

Other lines, results leading:

EC50 [1] [µM]	EC50 [2] [µM]	EC50 [3] [µM]	EC50 [4] [µM]	EC50 [5] [µM]	SMILES
0.55	0.21	1.5	0.02	–	CC1=C(CC/C(C)=C/c2ccc(C(=O)O)cc2)C(C)(C)CCC1
5	2	–	1.8	–	CC1=C(/C=C/C(C)=C\c2ccc(C(=O)O)cc2)C(C)(C)CCC1
0.24	0.035	–	0.005	–	CC1=C(/C=C/C(C)=C/c2ccc(C(=O)O)cc2)C(C)(C)CCC1
–	1.3	–	2	–	CC1=C(CC/C(C)=C\c2ccc(C(=O)O)cc2)C(C)(C)CCC1
0.027	0.03	–	0.015	–	C/C(=C\c1ccc(C(=O)O)cc1)c1ccc2c(c1)C(C)(C)CCS2
